Laboratory results as given in patent US5078986A, “Method for enhancing magnetic resonance imaging using an image altering agent containing an excess of chelating agent” (Mallinckrodt Medical, Inc., priority 1990, dated 1992).
“Also recorded” adds a separate entry of the source. Where two headings read alike, the source gives them in different places.

Key:
mice [1] = assay: Acute intravenous toxicity in mice (Example 7); assay type: in vivo, Swiss CF-1 albino mouse
Description: The acute intravenous toxicity of disodium (diethylenetriaminepentaacetato)gadolinium (III) (composition C of Example 1) was studied.
A total of 16 Swiss CF-1 albino mice (8 male, 22.0-25.6 g; 8 female, 18.2-24.1 g) were used. Picric acid markings were used for individual identification.
The protocol of Example 4 was used. Groups of 2-4 mice, with sexes equally represented, received single intravenous doses of the test substance according to the following schedule: […]

[2] = test system: excised hearts (normal and infarcted tissues); assay: NMR imaging of excised hearts of dogs with coronary occlusion (Example 10); assay type: in vivo, dog; settings: 2 ml/kg (0.34 mmol Gd(III)/kg), 10 min
Experimental: Selective catheterization of the left anterior descending coronary artery or circumflex coronary artery was achieved via a percutaneous intracarotid artery approach in anesthetized dogs. Gelfoam plugs were inserted into the coronary artery, via the catheter, in order to produce coronary occlusion. Animals were treated with lidocaine to prevent coronary arrhythmias and morphine to relieve pain.

[3] = test system: tissue and blood protons of rabbits; assay: Tissue and blood proton T1 and T2 values in rabbits (Example 9); assay type: in vivo, rabbit; settings: 0.51 mmol/kg i.v., 15 min
Experimental: The EKG was recorded with surface electrodes.

[4] = test system: renal medulla and renal cortex; assay: Abdominal NMR imaging in rabbits (Example 11); assay type: in vivo, rabbit; settings: 0.3 ml/kg (0.5 mmol Gd(III)/kg) i.v.
Experimental: Two rabbits were anesthetized and abdominal NMR images were obtained in the General Electric NMR scanner. Rabbits then received intravenous doses of 0.3 ml/kg (0.5 mmol Gd(III)/kg) of the preparation of composition D of Example 1 (GdNa2 DTPA) and additional abdominal NMR images were made over a period of two hours after dosing.

[5] = test system: normal and infarcted myocardial tissue, blood; assay: Proton T1 values of myocardium and blood in dogs with coronary occlusion (Example 10); assay type: in vivo, dog; settings: for Blood T1: before 510
mice [6] = assay: Acute intravenous toxicity in mice (Example 4); settings: i.v.; for Average Change in Body Wt. of Survivors: 7 days; for LD50: 7-day observation
Experimental: In addition, the cardiotoxic effects of single bolus intracoronary arterial injections of 4, 8, 16 or 32 mg MnCl2 were evaluated in the isolated perfused rabbit heart (IPRH).
The aqueous vehicle for the suspension of negatively charged liposomes consisted of 0.9% NaCl buffered with 0.003M sodium phosphate, pH 7.4. The lipid concentration was 50 μmol/ml.
A total of 60 mice, 30 males (body weight range of 20-33.5 g) and 30 females (body weight range of 19.1-29.7 g) were used. Fifty of the mice were Swiss ICR, CD-1, obtained from Charles River and ten were Swiss CF-1 obtained from Sasco (Omaha, Nebr.).
The four test substances were administered via the lateral tail vein of the mouse at a rate of 1 ml/min with the following doses given.

[7] = test system: isolated perfused rabbit heart
[8] = Biodistribution of 54Mn radioactivity in rats (Example 5); assay type: in vivo, Sprague-Dawley rat
Description: A total of forty Sprague-Dawley rats (20 male, 217-295 g; 20 female, 151-208 g; Charles River) were used. Drinking water was provided ad libitum. The animals, 2 males and 2 females per group, were selected randomly from their cages and were identified with indelible ink numbers at tail bases before test substance administration.
Rats were divided into 10 groups consisting of 2 male and 2 female rats per group. […] Immediately after dosing, rats were housed in individual metabolism cages. Ground Purina Laboratory Chow and water were supplied ad libitum to animals sacrificed at 24 and 48 hr after treatment. Rats from both ^54 NmNa2 EDTA and ^54 Mn-L treatment groups were sacrificed by cervical dislocation at 0.5, 2, 4, 24 and 48 hr after treatment, and the following samples were obtained: injection site, blood, liver, lung, spleen, heart, kidneys, salivary gland (submaxillary), brain, bone with marrow, muscle and fat. Urine samples were obtained from animals sacrificed at all intervals of 2 hr or more after injection and fecal samples were obtained from animals sacrificed at 24 and 48 hr after treatment. […] The entire organ weights were determined for the remaining tissues.
Levels of radioactivity in the biological specimens and aliquots of the injected test substances were determined using a gamma scintillation spectrometer (Model 1085, Nuclear Chicago Corp., Des Plaines, Ill.). Results were calculated on a percent dose/organ (or fluid) and a percent dose/g (or ml) basis using an HP-85 desk top computer (Hewlett Packard, Fort Collins, Colo.).
Kinetic data for the elimination of radioactivity from liver, spleen, kidneys, heart and bone with marrow were curve fitted by the peeling and least-square methods, to mono or bi-exponential equations: [formula] Where Ct=% dose/organ in tissue at time t.
Ai=Concentration at time 0 of the line described by each first order term.
Ki=Elimination rate constant for each first-order term.
The half-life (t 1/2) for each elimination phase was calculated as 0.693/Ki. The square of the correlation coefficient (r^2) for each elimination phase was calculated as an indication of variability.

[9] = 32 mg, 0-15 S, only 1 heart, all others had VF

O=C([O-])CN(CCN(CC(=O)[O-])CC(=O)[O-])CCN(CC(=O)[O-])CC(=O)[O-].[Gd+3].[Na+].[Na+] [GdNa2 DTPA, disodium (diethylenetriaminepentaacetato)gadolinium (III)]
Dose up to which no deaths were observed (mice [1]; mouse, i.v.): 12000 mg/kg | Ataxia (mice [1]; mouse, in vivo): slight ataxia | Body weight (in words) (mice [1]; mouse, in vivo): slight reduction in body weight | Respiratory distress (mice [1]; mouse, in vivo): respiratory distress was observed | Time until all mice appeared normal (mice [1]; mouse, in vivo, iv): ≤ 6 h | Acute intravenous toxicity profile (in words) (mice [1]; up to 12.0 g/kg): relatively safe mouse acute intravenous toxicity profile | Image differences between normal and infarcted tissues [2]: marked differences between normal and infarcted tissues; also recorded: greater than that observed in hearts from dogs with infarcts who had not received a contrast enhancement agent | T1 image of blood remaining in the ventricles [2]: much different T1 image | Mean tissue T1, Fat [3]: 61 ms | Mean tissue T1, Renal Medulla [3]: 130 ms | Alteration of renal proton images [4]: Marked alteration of renal medulla and renal cortex proton images | Time to peak effects [4]: ≤ 15 min | T1, infarcted regions of heart muscle ([5]; 0.17 mmol Gd(III)/kg i.v., 10 min): 290 ms | T1, normally perfused myocardial tissue ([5]; 0.17 mmol Gd(III)/kg i.v., 10 min, untreated 330): 180 ms | Blood T1 ([5]; 0.34 mmol Gd(III)/kg, 5 minutes): 50 ms | T1, infarcted tissue ([5]; 0.34 mmol Gd(III)/kg, 10 min): 230 ms | T1, normally perfused myocardium ([5]; 0.34 mmol Gd(III)/kg, 10 min, untreated 330): 135 ms | Blood T1 ([5]; 0.34 mmol Gd(III)/kg, 10 minutes): 100 ms

[Cl][Mn][Cl] [MnCl2, manganese(II)chloride]
Cumulative 7-Day Mortalities/Number Dosed (mice [6]; female, 25 mg/kg): 1/5 | Average Change in Body Wt. of Survivors (mice [6]; female, 25 mg/kg): 2.7 g | Cumulative 7-Day Mortalities/Number Dosed (mice [6]; female, 31.25 mg/kg): 4/5 | Average Change in Body Wt. of Survivors (mice [6]; female, 31.25 mg/kg): 3.5 g | Cumulative 7-Day Mortalities/Number Dosed (mice [6]; female, 37.5 mg/kg): 4/5 | Average Change in Body Wt. of Survivors (mice [6]; female, 37.5 mg/kg): 3.6 g | Acute intravenous toxicity (in words) (mice [6]): high degree of acute toxicity | Cause of death (mice [6]): cardiac arrest the probable cause of death | Convulsions (mice [6]): Transient convulsions, of moderate severity; also recorded: convulsions the primary pharmacotoxic sign | Time of the one delayed death after dosing (mice [6]): 4 days | LD50 (mice [6]; 10080 min): 28 mg/kg | LD50 (mice [6]; listed as 1, 10080 min): 28.0 mg/kg | LD50 expressed as Mn(II) (mice [6]; mmol/kg of Mn(II), 10080 min): 0.22 mmol/kg | Cumulative 7-Day Mortalities/Number Dosed (mice [6]; male, 25 mg/kg): 3/5 | Average Change in Body Wt. of Survivors (mice [6]; male, 25 mg/kg): 1.2 g | Cumulative 7-Day Mortalities/Number Dosed (mice [6]; male, 31.25 mg/kg): 2/5 | Average Change in Body Wt. of Survivors (mice [6]; male, 31.25 mg/kg): 4.6 g | Cumulative 7-Day Mortalities/Number Dosed (mice [6]; male, 37.5 mg/kg): 4/5 | Average Change in Body Wt. of Survivors (mice [6]; male, 37.5 mg/kg): 3.4 g | Incidence of Ventricular Fibrillation (VF) ([7]; 4 mg): 0/6 | Mean % Change in Contractile Force (CF) ([7]; 4 mg, 0-15 S): -5% | Mean % Change in Heart Rate (HR) ([7]; 4 mg, 0-15 S): -2% | Mean % Change in Contractile Force (CF) ([7]; 4 mg, 15-30 S): -28% | Mean % Change in Heart Rate (HR) ([7]; 4 mg, 15-30 S): -2% | Mean % Change in Contractile Force (CF) ([7]; 4 mg, 1 min): -12% | Mean % Change in Heart Rate (HR) ([7]; 4 mg, 1 min): -4% | Mean % Change in Contractile Force (CF) ([7]; 4 mg, 2 min): +5% | Mean % Change in Heart Rate (HR) ([7]; 4 mg, 2 min): -2% | Incidence of Ventricular Fibrillation (VF) ([7]; 8 mg): 0/6 | Mean % Change in Contractile Force (CF) ([7]; 8 mg, 0-15 S): -74% | Mean % Change in Heart Rate (HR) ([7]; 8 mg, 0-15 S): -8% | Mean % Change in Contractile Force (CF) ([7]; 8 mg, 15-30 S): -38% | Mean % Change in Heart Rate (HR) ([7]; 8 mg, 15-30 S): -7% | Mean % Change in Contractile Force (CF) ([7]; 8 mg, 1 min): -17% | Mean % Change in Heart Rate (HR) ([7]; 8 mg, 1 min): -7% | Mean % Change in Contractile Force (CF) ([7]; 8 mg, 2 min): +2% | Mean % Change in Heart Rate (HR) ([7]; 8 mg, 2 min): -6% | Incidence of Ventricular Fibrillation (VF) ([7]; 16 mg): 2/6 | Mean % Change in Contractile Force (CF) ([7]; 16 mg, 0-15 S): -92% | Mean % Change in Heart Rate (HR) ([7]; 16 mg, 0-15 S): -31% | Mean % Change in Contractile Force (CF) ([7]; 16 mg, 15-30 S): -61% | Mean % Change in Heart Rate (HR) ([7]; 16 mg, 15-30 S): -14% | Mean % Change in Contractile Force (CF) ([7]; 16 mg, 1 min): -37% | Mean % Change in Heart Rate (HR) ([7]; 16 mg, 1 min): -14% | Mean % Change in Contractile Force (CF) ([7]; 16 mg, 2 min): -1% | Mean % Change in Heart Rate (HR) ([7]; 16 mg, 2 min): -11% | Premature ventricular contractions ([7]; 16 mg, hearts which did not fibrillate): two of the four hearts which did not fibrillate had premature ventricular contractions | Incidence of Ventricular Fibrillation (VF) ([7]; 32 mg): 5/6 | Mean % Change in Contractile Force (CF) [7, 9]: -100% | Mean % Change in Heart Rate (HR) [7, 9]: -100% | Mean % Change in Contractile Force (CF) ([7]; 32 mg, 15-30 S): -64% | Mean % Change in Heart Rate (HR) ([7]; 32 mg, 15-30 S): -17% | Mean % Change in Contractile Force (CF) ([7]; 32 mg, 1 min): -33% | Mean % Change in Heart Rate (HR) ([7]; 32 mg, 1 min): -17% | Mean % Change in Contractile Force (CF) ([7]; 32 mg, 2 min): +2% | Mean % Change in Heart Rate (HR) ([7]; 32 mg, 2 min): -14% | A-V conduction block ([7]; 32 mg, the single heart which failed to fibrillate): complete A-V conduction block with ventricular standstill | Incidence of arrhythmias (in words) ([7]; 4-32 mg intracoronary): dose-related incidence of arrhythmias | Period of maximal CF and HR effects after injection ([7]; 4-32 mg intracoronary): 0 to 15 s | Arrhythmias at the lower two doses ([7]; 4 and 8 mg): No arrhythmias were observed | Time to return to control or stabilization at new baseline ([7]; CF and HR): two | PR and QRS intervals ([7]; ECG): dose-related increases in PR and QRS intervals | Reversion of VF ([7]; exception: a 32 mg dose): did revert spontaneously to normal sinus rhythm in each instance but one

O=C([O-])CN(CCN(CC(=O)[O-])CC(=O)[O-])CC(=O)[O-].[54Mn+2].[Na+].[Na+] [^54 MnNa2 EDTA]
Radioactivity in fat (in words) ([8]; 2 of 4 rats at 0.5, 2 and 4 hr): Unusually high levels of radioactivity | Localization of remaining radioactivity ([8]; after 48 hr): primarily localized in the bone and marrow | Urinary excretion at later time intervals ([8]; after the initial 2 hr): no additional urinary excretion of radioactivity was observed | Blood clearance at 2 hr (in words) ([8]; by 2 hr after treatment): almost completely cleared from the blood | Blood clearance (in words) ([8]; rat, i.v.): rapidly cleared from the blood | Bone and marrow half-life ([8]; rat, i.v.): > 100 h | Distribution, percent dose/organ (in words) ([8]; rat, i.v.): distributed primarily to the liver, bone with marrow, muscle and kidneys | Fraction associated with rapid first phase hepatic elimination ([8]; rat, i.v.): Approximately 92% | Fraction associated with rapid first phase renal elimination ([8]; rat, i.v.): Approximately 81% | Heart half-life, monophasic elimination ([8]; rat, i.v.): approximately 8 hr | Hepatic t 1/2, initial rapid elimination ([8]; rat, i.v.): < 1 h | Hepatic t 1/2, secondary slow elimination phase ([8]; rat, i.v.): > 17 h | Renal t 1/2, initial rapid elimination ([8]; rat, i.v.): < 1 h | Renal t 1/2, secondary slow elimination phase ([8]; rat, i.v.): > 17 h | Spleen half-life, monophasic elimination ([8]; rat, i.v.): ~ 2 hr | Dose eliminated in the urine ([8]; within 2 hr after treatment): > 50 % of the dose | Total dose excreted in the feces ([8]; within 48 hr after treatment): 31%
